Data published in US6087334A, “Anti-diabetic peptides” (Amylin Pharmaceuticals, Inc., priority 1998, dated 2000).
Where a SMILES comes first, the peptide text is derived from it. Bridges are numbered along the chain shown (N, C = ends).

Experiments:
[1] = target: T1, C1a receptor (C1a-type calcitonin receptor) (Rattus norvegicus, UniProt P32214); assay: C1a/293 competitive binding, displacement of [125I]-human calcitonin (Example C); conditions: HEK293 plasma membranes (C1a/293), [125I]-human calcitonin 20 pM
T1 construct: expressed in transfected cells
T1 sequence (P32214 25-479 isoform P32214-2 limits assumed): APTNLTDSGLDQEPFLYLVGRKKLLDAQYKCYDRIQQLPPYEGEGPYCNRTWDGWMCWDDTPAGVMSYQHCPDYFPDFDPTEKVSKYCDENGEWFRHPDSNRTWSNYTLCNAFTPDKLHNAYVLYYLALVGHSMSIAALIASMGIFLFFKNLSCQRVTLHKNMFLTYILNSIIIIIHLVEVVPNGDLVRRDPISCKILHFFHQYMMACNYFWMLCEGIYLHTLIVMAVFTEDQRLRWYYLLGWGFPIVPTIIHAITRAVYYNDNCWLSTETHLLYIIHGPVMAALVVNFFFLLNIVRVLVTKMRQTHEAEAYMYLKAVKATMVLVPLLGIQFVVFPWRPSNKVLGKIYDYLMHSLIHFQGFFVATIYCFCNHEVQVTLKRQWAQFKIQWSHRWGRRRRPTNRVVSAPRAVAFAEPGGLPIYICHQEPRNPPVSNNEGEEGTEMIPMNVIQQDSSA
Method: Peptide compounds of the present invention may be evaluated for binding to the C1a receptor using the procedures described in Example C. The C1a receptor is the predominant mammalian calcitonin receptor subtype. C1a pcDNA construction and transfection were carried out as previously described (Albrandt et al. 1993, FEBS Letters, 325:225-232). HEK293 cell lines showing stable expression of the rat C1a-type calcitonin receptor (C1a/293) or the human C1a-type calcitonin receptor (1154/293) were selected by G418 resistance and limiting dilution culture methods. Plasma membranes were collected from homogenized HEK293 cells and used in the receptor binding assay. Individual test peptides at concentrations spanning 6 log units starting at around 10^-6 M were examined for their ability to displace [^125 I]-human calcitonin from the plasma membrane preparation using a 96-well microtiter plate format and scintillation counting with a Wallac LKB Beta plate counter. Competitive binding curves were constructed. Non-specific binding was measured in the presence of 100 nM calcitonin. Peptide potencies (IC50 's for competitive binding) were calculated by non-linear regression using Prism™ (version 2.01, GraphPAD Software, San Diego, Calif.).
C1a/293 Competitive Binding Studies:
Compounds were evaluated for competition in binding to the C1a receptor as follows:
(§1) Reference peptides used in these studies were purchased from Bachem (Torrance, Calif.). All other chemicals were of the highest commercial grade. [^35 S]-GTPγS was purchased from NEN Life Science Products, Inc., Pittsburgh, Pa. [^125 I]-human calcitonin was purchased from Amersham Pharmacia Biotech, Inc., Piscataway, N.J.
(§2) Methods for C1a pcDNA construction and transfection have been previously described (Albrandt, et al. 1993). HEK293 cell lines stably expressing the rat C1a-type calcitonin receptor (C1a/293) or the human C1a-type calcitonin receptor (1154/293) were selected by G418 resistance and limiting dilution culture methods.
(§3) Confluent cells were detached from tissue culture flasks by incubation with 5 mM EDTA in PBS. Cells were homogenized in ice-cold 20 mM HEPES, pH 7.4 with a Polytron homogenizer. Plasma membranes were collected using three cycles of washing in fresh buffer followed by centrifugation for 15 minutes at 48,000×g. The final membrane pellet was resuspended in 20 mM HEPES buffer containing 0.2 mM phenylmethylsulfonyl fluoride (PMSF) and stored at -70° C.
Assay buffer contained 5 μg/mL bestatin, 1 μg/mL phosphoramidon, 1 mg/mL bovine serum albumin (fraction V), 1 mg/mL bacitracin, 1 mM MgCl2, and 20 mM HEPES, pH 7.4. Membranes (2-5 μg membrane protein/well), [^125 I]-human calcitonin (20 pM), and peptides were combined in 200 μL buffer in 96-well microtiter plates. After a 60 minute incubation at room temperature, well contents were harvested onto polyethyleneimine-treated GF/B glass fiber pads using a Tomtec Mach II plate harvestor (Hamden, Conn.). Dried pads were combined with scintillant and counted on a Wallac LKB Beta Plate scintillation counter (Gaithersburg, Md.). For competitive binding curves, samples were run in duplicate over a 6 log concentration range starting at 10^-6 or 10^-7 M. Non-specific binding was measured in the presence of 100 nM human calcitonin.

[2] = target: T1, C1a receptor (C1a-type calcitonin receptor); assay: biochemical; conditions: HEK293 plasma membranes, [35S]-GTPγS 200 pM; read-out: ED50 (nM) Example B (C1a GTPγS)
From the text: Peptide compounds of the present invention may be evaluated for agonist activity using the procedures described in Example B. The plasma membrane preparation of a 7-transmembrane-G-protein coupled receptor (GPCR) contains not only the receptor but also the G-proteins which constitute the first step in the intracellular signal transduction process when the receptor is activated by an agonist ligand. […] Agonist activation of a GPCR is accompanied by displacement of GDP by GTP from this site. Thus, measurement of the binding of a radiolabelled ligand, namely [^35 S]-GTPγS, for this binding site constitutes a measure of agonist potency for a given ligand. For agonism at the C1a receptor, a similar membrane preparation to that described below for the C1a binding studies is used. C1a pcDNA construction and transfection were carried out as previously described (Albrandt et al. 1993, FEBS Letters, 325:225-232). HEK293 cell lines showing stable expression of the rat C1a-type calcitonin receptor (C1a/293) or the human C1a-type calcitonin receptor (1154/293) were selected by G418 resistance and limiting dilution culture methods. Plasma membranes were collected from homogenized HEK293 cells and used in the [^35 S]-GTPγS assay. Individual test peptides at concentrations spanning 6 log units starting at around […] were examined for their ability to bind [^35 S]-GTPγS. Maximum agonist-specific binding was measured in the presence of 1 μM human calcitonin, constitutive binding was measured in the presence of buffer alone. Peptide potencies (EC50 's for concentration response curves) were calculated by non-linear regression using Prism™ (version 2.01, GraphPAD Software, San Diego, Calif.).
[^35 S]-GTPγS C1a Agonist Studies
Evaluation of the agonist activity of compounds versus the C1a receptor was carried out as follows:
as §1
as §2, with “1993, FEBS Letters, 325:225-232).” for “1993).”
as §3
Assay buffer contained 1 μM GDP, 1 mM EDTA, 5 mM MgCl2, 20 mM Hepes, and 150 mM NaCl, pH 7.4. Membranes (7.5 μg membrane protein/well), [^35 S]-GTPγS (200 pM), and peptides were combined in 200 μL buffer in 96-well microtiter plates. After a 75 minute incubation at room temperature, well contents were harvested onto GF/B glass fiber pads using a Tomtec Mach II plate harvestor (Hamden, Conn.). Dried pads were combined with scintillant and counted on a Wallac LKB Beta Plate scintillation counter. For concentration response curves, samples were run in duplicate over a 6 log concentration range starting at 10^-6 M or 10^-7 M. Maximum agonist-specific binding was measured in the presence of 1 μM human calcitonin, constitutive binding was measured in the presence of buffer alone.
Peptide potencies (1C50 's for competitive binding, and EC50 's for concentration response curves) were calculated by non-linear regression using Prism (version 2.01, GraphPAD Software, San Diego, Calif.).

Row | SMILES | IC50 [1] [nM] | EC50 [2] [nM]
1 | CC(C)C[C@H](NC(=O)[C@H](CCCNC(=N)N)NC(=O)[C@H](CCC(N)=O)NC(=O)[C@@H](NC(=O)[C@H](C)NC(=O)[C@@H]1CSSC[C@H](NC(=O)[C@@H](N)CCCCN)C(=O)N[C@@H](CC(N)=O)C(=O)N[C@@H]([C@@H](C)O)C(=O)N[C@@H](C)C(=O)N[C@@H]([C@@H](C)O)C(=O)N1)[C@@H](C)O)C(=O)N[C@@H](C)C(=O)N[C@@H](CC(N)=O)C(=O)N[C@@H](Cc1ccccc1)C(=O)N[C@@H](CC(C)C)C(=O)N[C@H](C(=O)N[C@@H](Cc1c[nH]cn1)C(=O)N[C@@H](CO)C(=O)N[C@@H](CO)C(=O)NCC(=O)N[C@@H](Cc1ccc(O)cc1)C(N)=O)C(C)C [Example 11] (H-KCNTATCATQRLANFLVHSSGY-NH2; disulfide 2-7) | 8.3 | 14
2 | CC(C)C[C@H](NC(=O)[C@H](CCCNC(=N)N)NC(=O)[C@H](CCC(N)=O)NC(=O)[C@@H](NC(=O)[C@H](C)NC(=O)[C@@H]1CSSC[C@H](NC(=O)[C@@H](N)CCCCN)C(=O)N[C@@H](CC(N)=O)C(=O)N[C@@H]([C@@H](C)O)C(=O)N[C@@H](C)C(=O)N[C@@H]([C@@H](C)O)C(=O)N1)[C@@H](C)O)C(=O)N[C@@H](C)C(=O)N[C@@H](CC(N)=O)C(=O)N[C@@H](Cc1ccccc1)C(=O)N[C@@H](CC(C)C)C(=O)N[C@H](C(=O)N[C@@H](CCCNC(=N)N)C(=O)N[C@@H](C)C(=O)N[C@@H](CO)C(=O)NCC(=O)N[C@@H](Cc1ccc(O)cc1)C(N)=O)C(C)C [Example 10] (H-KCNTATCATQRLANFLVRASGY-NH2; disulfide 2-7) | 4.7 | 8
3 | CC(C)C[C@H](NC(=O)[C@H](CCCNC(=N)N)NC(=O)[C@H](C)NC(=O)[C@@H](NC(=O)[C@H](C)NC(=O)[C@@H]1CSSC[C@H](N)C(=O)N[C@@H](CC(N)=O)C(=O)N[C@@H]([C@@H](C)O)C(=O)N[C@@H](C)C(=O)N[C@@H]([C@@H](C)O)C(=O)N1)[C@@H](C)O)C(=O)N[C@@H](C)C(=O)N[C@@H](C)C(=O)N[C@@H](Cc1ccccc1)C(=O)N[C@@H](CC(C)C)C(=O)N[C@@H](C)C(=O)N[C@@H](CCCNC(=N)N)C(N)=O [Example 7] (H-CNTATCATARLAAFLAR-NH2; disulfide 1-6) | 2.7 | 2.2
4 | CC(C)C[C@H](NC(=O)[C@H](CCCNC(=N)N)NC(=O)[C@H](CCC(N)=O)NC(=O)[C@@H](NC(=O)[C@H](C)NC(=O)[C@@H]1CSSC[C@H](NC(=O)[C@@H](N)CCCCN)C(=O)N[C@@H](CC(N)=O)C(=O)N[C@@H]([C@@H](C)O)C(=O)N[C@@H](C)C(=O)N[C@@H]([C@@H](C)O)C(=O)N1)[C@@H](C)O)C(=O)N[C@@H](C)C(=O)N[C@@H](CC(N)=O)C(=O)N[C@@H](Cc1ccccc1)C(=O)N[C@@H](CC(C)C)C(=O)N[C@H](C(=O)N[C@@H](CCCNC(=N)N)C(=O)N[C@@H](CO)C(=O)N[C@@H](CO)C(=O)NCC(=O)N[C@@H](Cc1ccc(O)cc1)C(N)=O)C(C)C [Example 14] (H-KCNTATCATQRLANFLVRSSGY-NH2; disulfide 2-7) | 18 | 90
5 | CC(C)C[C@H](NC(=O)[C@H](CCCNC(=N)N)NC(=O)[C@H](CCC(N)=O)NC(=O)[C@@H](NC(=O)[C@H](C)NC(=O)[C@@H]1CSSC[C@H](NC(=O)[C@@H](N)CCCCN)C(=O)N[C@@H](CC(N)=O)C(=O)N[C@@H](C(C)C)C(=O)N[C@@H](C)C(=O)N[C@@H]([C@@H](C)O)C(=O)N1)[C@@H](C)O)C(=O)N[C@@H](C)C(=O)N[C@@H](CC(N)=O)C(=O)N[C@@H](Cc1ccccc1)C(=O)N[C@@H](CC(C)C)C(=O)N[C@H](C(=O)N[C@@H](CCCNC(=N)N)C(=O)N[C@@H](CO)C(=O)N[C@@H](CO)C(=O)NCC(=O)N[C@@H](Cc1ccc(O)cc1)C(N)=O)C(C)C [Example 2] (H-KCNVATCATQRLANFLVRSSGY-NH2; disulfide 2-7) | 0.128 | 2.6
6 | CC(C)C[C@H](NC(=O)[C@H](CCCNC(=N)N)NC(=O)[C@H](CCC(N)=O)NC(=O)[C@@H](NC(=O)[C@H](C)NC(=O)[C@@H]1CSSC[C@H](NC(=O)[C@@H](N)CCCCN)C(=O)N[C@@H](CC(N)=O)C(=O)N[C@@H]([C@@H](C)O)C(=O)N[C@@H](C)C(=O)N[C@@H]([C@@H](C)O)C(=O)N1)[C@@H](C)O)C(=O)N[C@@H](C)C(=O)N[C@@H](CC(N)=O)C(=O)N[C@@H](Cc1ccccc1)C(=O)N[C@@H](CC(C)C)C(=O)N[C@H](C(=O)N[C@@H](CCCNC(=N)N)C(=O)N[C@@H](CO)C(=O)NCC(=O)N[C@@H](Cc1ccc(O)cc1)C(N)=O)C(C)C [Example 9] (H-KCNTATCATQRLANFLVRSGY-NH2; disulfide 2-7) | 4.1 | 8.6
7 | CC(C)C[C@H](NC(=O)[C@H](Cc1ccccc1)NC(=O)[C@H](CC(N)=O)NC(=O)[C@H](C)NC(=O)[C@H](CC(C)C)NC(=O)[C@H](CCCNC(=N)N)NC(=O)[C@H](CCC(N)=O)NC(=O)[C@@H](NC(=O)[C@H](C)NC(=O)[C@@H]1CSSC[C@H](NC(=O)[C@@H](N)CCCCN)C(=O)N[C@@H](CC(N)=O)C(=O)N[C@@H]([C@@H](C)O)C(=O)N[C@@H](C)C(=O)N[C@@H]([C@@H](C)O)C(=O)N1)[C@@H](C)O)C(=O)N[C@@H](C)C(=O)N[C@@H](CCCNC(=N)N)C(=O)N[C@@H](CO)C(=O)N[C@@H](CO)C(=O)NCC(=O)N[C@@H](Cc1ccc(O)cc1)C(N)=O [Example 16] (H-KCNTATCATQRLANFLARSSGY-NH2; disulfide 2-7) | 20 | 1.4
